Measured values published in article PMC8121067 (Journal of Cell Science, 2021).
Several values for one entry are separate records, joined by “and”; a condition that tells them apart may be missing. Equal entries are not always repeated. Entries after “also recorded” stand apart in the source; their conditions may differ. Marks after values point to notes of the source that are not given here.

Experiments:
[1] = biological target: T1, human non-muscle myosin 2A (Homo sapiens, UniProt P35579); assay: actin-activated ATPase assay (NADH-linked); type: biochemical; details: phosphorylated by MLCK; 10 µM actin, 25°C; approximate; read-out: IC50, actin-activated MgATPase activity
T1 construct: A heavy meromyosin (HMM)-like fragment of human non-muscle myosin 2A; made in house; host or cells: Sf9 insect cells (baculovirus co-infection)
T1 sequence (P35579 1-1337 limits assumed): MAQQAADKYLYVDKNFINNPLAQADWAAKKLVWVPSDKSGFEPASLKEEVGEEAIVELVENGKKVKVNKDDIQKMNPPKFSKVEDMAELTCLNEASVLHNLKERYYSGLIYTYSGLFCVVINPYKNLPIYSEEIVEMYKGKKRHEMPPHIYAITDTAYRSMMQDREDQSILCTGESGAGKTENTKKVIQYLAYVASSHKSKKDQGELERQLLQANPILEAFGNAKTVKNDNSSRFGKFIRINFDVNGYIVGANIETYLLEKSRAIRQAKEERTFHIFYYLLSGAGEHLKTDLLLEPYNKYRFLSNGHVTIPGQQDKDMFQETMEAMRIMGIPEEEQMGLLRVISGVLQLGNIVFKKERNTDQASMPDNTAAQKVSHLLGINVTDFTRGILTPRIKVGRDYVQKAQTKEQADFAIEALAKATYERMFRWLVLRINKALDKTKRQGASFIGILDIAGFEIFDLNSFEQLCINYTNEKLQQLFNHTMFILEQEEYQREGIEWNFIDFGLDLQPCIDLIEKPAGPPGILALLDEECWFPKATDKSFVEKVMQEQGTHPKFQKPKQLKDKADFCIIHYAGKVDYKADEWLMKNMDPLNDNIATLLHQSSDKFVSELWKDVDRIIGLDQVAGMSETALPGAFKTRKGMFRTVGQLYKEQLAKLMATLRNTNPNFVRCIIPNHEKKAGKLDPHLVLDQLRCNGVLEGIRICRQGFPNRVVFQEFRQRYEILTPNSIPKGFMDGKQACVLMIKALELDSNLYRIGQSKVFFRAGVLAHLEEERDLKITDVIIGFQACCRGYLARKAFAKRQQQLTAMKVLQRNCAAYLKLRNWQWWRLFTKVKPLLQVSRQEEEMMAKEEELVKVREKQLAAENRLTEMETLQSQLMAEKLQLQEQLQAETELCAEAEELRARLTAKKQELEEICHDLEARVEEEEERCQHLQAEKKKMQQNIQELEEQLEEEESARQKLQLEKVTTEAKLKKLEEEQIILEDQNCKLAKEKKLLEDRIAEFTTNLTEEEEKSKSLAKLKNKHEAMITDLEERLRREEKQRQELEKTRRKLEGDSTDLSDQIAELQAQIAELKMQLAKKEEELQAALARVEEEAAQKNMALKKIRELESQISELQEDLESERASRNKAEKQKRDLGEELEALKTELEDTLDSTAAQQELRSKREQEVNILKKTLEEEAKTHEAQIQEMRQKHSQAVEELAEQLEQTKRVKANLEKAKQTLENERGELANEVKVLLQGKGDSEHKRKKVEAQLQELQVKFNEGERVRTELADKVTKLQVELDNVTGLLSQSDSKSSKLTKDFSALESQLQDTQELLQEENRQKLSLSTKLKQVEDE
T1 sequence (O14950 2-172 partner limits assumed): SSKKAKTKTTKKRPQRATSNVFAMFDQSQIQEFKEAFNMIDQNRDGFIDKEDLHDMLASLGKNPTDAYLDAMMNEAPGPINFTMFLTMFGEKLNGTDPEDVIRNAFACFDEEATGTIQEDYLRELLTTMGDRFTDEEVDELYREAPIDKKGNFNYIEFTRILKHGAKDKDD
T1 sequence (P60660 2-151 partner limits assumed): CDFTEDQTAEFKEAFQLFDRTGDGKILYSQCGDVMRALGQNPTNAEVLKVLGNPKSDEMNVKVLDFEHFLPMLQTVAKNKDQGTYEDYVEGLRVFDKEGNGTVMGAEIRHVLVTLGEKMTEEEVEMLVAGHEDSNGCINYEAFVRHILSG
Method: (§1) Two methods are primarily used to assess actomyosin function in vitro. […] In the absence of actin, myosins have very low basal ATPase rates that are activated 10–1000-fold by the addition of actin ([De La Cruz and Ostap, 2009]).
(§2) A heavy meromyosin (HMM)-like fragment of human non-muscle myosin 2A was prepared by expression in Sf9 insect cells as described ([Kengyel et al., 2010]). Cells were co-infected with a virus driving the expression of the truncated myosin heavy chain as well as one driving the expression of regulatory and essential light chains. The myosin was phosphorylated through smooth muscle myosin light chain kinase (MLCK) prior to use ([Nagy et al., 2013]). Full-length Drosophila myosin 5 ([Lu et al., 2020]), Drosophila myosin 7a ([Yang et al., 2009]) and a forced dimeric HMM-like fragment of bovine myosin 10 ([Takagi et al., 2014]) were also produced in Sf9 cells. Drosophila myosin 5 was co-expressed with Drosophila ELC and calmodulin, whereas the HMM-like fragment of myosin 10 was co-expressed with calmodulin. Skeletal muscle HMM was produced by chymotrypic digestion of full-length rabbit fast skeletal muscle myosin ([Margossian and Lowey, 1982]). […]
(§3) Actin-activated ATPase assays were carried out using an NADH-linked assay in a Cary 50 spectrophotometer as previously described ([Heissler et al., 2015]). […] Absorbance was monitored at 340 nm. […]

[2] = biological target: rabbit skeletal muscle myosin 2; assay: actin-activated ATPase assay (NADH-linked); type: biochemical; details: tissue purified, mixed isoforms; approximate
Method: as §1, §2, §3

permeabilized HFF cells = assay: ATP-induced centripetal movement of myosin 2 filaments in permeabilized cells (PIV); type: cell-based, human; details: 50 μM
From the text: (§4) We also tested inhibition of contraction of another type of contractile actomyosin structure, i.e. of the transverse arcs formed by periodically arranged myosin and actin filaments in fibroblasts ([Hu et al., 2017]). We measured the velocity of movement of transverse arcs in human foreskin fibroblast (HFF) cells plated on a circular fibronectin island ([Tee et al., 2015]). In control cells, filaments of non-muscle myosin 2 were visualized by expression of GFP-tagged myosin regulatory light chain (GFP-MRLC) localized to the transverse arcs and moved towards the cell center with an average velocity of 0.152 μm/min, as determined by particle image velocimetry (PIV) (Fig. 2A) ([Hu et al., 2017)]. […] Permeabilization of the same cells by using Triton X-100 removed G-actin and ATP. […]
(§5) Particle Image Velocimetry (PIV) analysis was used to measure average instantaneous speed of filaments of non-muscle myosin 2 visualized by expression of GFP-MRLC. […] To quantify the retraction speed of stress fiber ends, we manually selected all ends labeled by unconverted mEOS3.2-actin and arranged them into kymographs for every cell. The retraction speed for each end during imaging was calculated manually using the kymograph. The average retraction speed of stress fibers was calculated for each cell and plotted.

[3] = tested on: Formins: CYK-1, Cdc12 and Fus1, Bn1, mDia2; design: method as in Rizvi et al., 2009; details: CYK-1, Cdc12, Fus1, Bn1, mDia2; ref Rizvi et al., 2009; read-out: IC50 values for formins from a variety of species; cited from earlier work
MLCK = MLCK (Homo sapiens, UniProt Q15746); assay: myosin light chain kinase phosphorylation of non-muscle myosin 2A (HPLC-mass spectrometry); type: biochemical; details: 100 μM
MLCK, sequence (Q15746 923-1914): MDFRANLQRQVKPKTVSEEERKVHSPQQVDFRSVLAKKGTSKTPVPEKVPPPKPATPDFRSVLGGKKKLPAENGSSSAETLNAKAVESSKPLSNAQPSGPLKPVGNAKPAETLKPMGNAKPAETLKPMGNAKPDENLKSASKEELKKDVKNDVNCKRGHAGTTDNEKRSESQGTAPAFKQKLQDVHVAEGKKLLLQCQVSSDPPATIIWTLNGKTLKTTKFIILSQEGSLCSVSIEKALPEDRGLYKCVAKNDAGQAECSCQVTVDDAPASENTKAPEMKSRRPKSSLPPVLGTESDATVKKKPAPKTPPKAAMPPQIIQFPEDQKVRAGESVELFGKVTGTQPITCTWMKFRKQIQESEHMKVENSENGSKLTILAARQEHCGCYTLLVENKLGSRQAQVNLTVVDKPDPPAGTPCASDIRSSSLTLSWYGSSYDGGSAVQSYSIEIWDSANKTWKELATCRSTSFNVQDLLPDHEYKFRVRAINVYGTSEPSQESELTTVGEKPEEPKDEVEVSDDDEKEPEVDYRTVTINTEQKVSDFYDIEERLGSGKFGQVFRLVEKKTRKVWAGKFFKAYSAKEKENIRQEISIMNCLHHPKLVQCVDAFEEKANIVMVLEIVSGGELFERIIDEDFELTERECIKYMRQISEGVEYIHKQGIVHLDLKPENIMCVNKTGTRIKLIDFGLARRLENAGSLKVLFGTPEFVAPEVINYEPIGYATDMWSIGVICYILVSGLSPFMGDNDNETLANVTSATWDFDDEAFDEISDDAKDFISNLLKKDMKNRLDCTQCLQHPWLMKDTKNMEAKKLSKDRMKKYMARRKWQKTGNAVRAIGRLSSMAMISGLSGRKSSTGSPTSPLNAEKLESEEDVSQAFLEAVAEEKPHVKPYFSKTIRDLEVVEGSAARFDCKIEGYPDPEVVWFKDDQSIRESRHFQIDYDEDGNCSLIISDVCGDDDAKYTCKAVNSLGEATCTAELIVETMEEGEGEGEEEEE

[4] = tested on: rabbit skeletal muscle myosin 2 HMM; assay: gliding actin in vitro motility assay; type: biochemical
From the text: Here, skeletal muscle myosin 2 HMM is bound to a nitrocellulose-coated coverslip and its ability to translocate Rhodamine–phalloidin-labeled actin filaments observed (Table 1). […] The lack of reversibility could be due to covalent modification of myosin by SMIFH2. […] A higher drug concentration was required to achieve ∼50% of the gliding velocity than was required for similar inhibition of the actin-activated ATPase. This was also observed when blebbistatin was used to inhibit actin gliding ([Limouze et al., 2004]; [Sakamoto et al., 2005]).
The gliding actin in vitro motility assay was conducted at 30°C in 50 mM KCl, 4 mM MgCl2, 0.1 mM EGTA, 30 mM MOPS pH 7.2, 0.5% methylcellulose, 1 mM ATP, using an oxygen-savaging system consisting of 2.5 μg/ml glucose oxidase, 45 μg/ml catalase, 2.5 mg/ml glucose and […] DTT ([Sellers et al., 1993]). The rate of movement of actin filaments was determined as described previously ([Homsher et al., 1992]).

pure actin = tested on: pure actin; design: method as in Rizvi et al., 2009; details: ref Rizvi et al., 2009; cited from earlier work
Drosophila myosin 7a = biological target: T2, Drosophila myosin 7a (Drosophila melanogaster, UniProt Q9V3Z6); assay: actin-activated ATPase assay (NADH-linked); type: biochemical; details: approximate
T2 construct: made in house; host or cells: Sf9 cells
From the text: (§6) There are 40 myosin heavy chain genes from twelve classes in the human genome ([Berg et al., 2001]). Many, but not all of these myosins are present in other metazoan species including Drosophila ([Yamashita et al., 2000]). Although all of these myosins contain a conserved motor domain, the tail portions are very diverse, allowing the myosins to perform a plethora of cellular functions. […] The assays regarding bovine myosin 10 are particularly interesting since this myosin plays a role in filopodia initiation and formation in mammalian cells ([Kerber and Cheney, 2011]), a process that also involves formin action.
(§7) A heavy meromyosin (HMM)-like fragment of human non-muscle myosin 2A was prepared by expression in Sf9 insect cells as described ([Kengyel et al., 2010]). Cells were co-infected with a virus driving the expression of the truncated myosin heavy chain as well as one driving the expression of regulatory and essential light chains. The myosin was phosphorylated through smooth muscle myosin light chain kinase (MLCK) prior to use ([Nagy et al., 2013]). Full-length Drosophila myosin 5 ([Lu et al., 2020]), Drosophila myosin 7a ([Yang et al., 2009]) and a forced dimeric HMM-like fragment of bovine myosin 10 ([Takagi et al., 2014]) were also produced in Sf9 cells. Drosophila myosin 5 was co-expressed with Drosophila ELC and calmodulin, whereas the HMM-like fragment of myosin 10 was co-expressed with calmodulin. Skeletal muscle HMM was produced by chymotrypic digestion of full-length rabbit fast skeletal muscle myosin ([Margossian and Lowey, 1982]). Rabbit skeletal muscle actin was prepared as previously described ([Lehrer and Kerwar, 1972]).
(§8) Actin-activated ATPase assays were carried out using an NADH-linked assay in a Cary 50 spectrophotometer as previously described ([Heissler et al., 2015]). […] The final amount of DMSO added to the samples was 2%. The assay conditions were 10 µM actin, 50 mM KCl, 10 mM MOPS, 2 mM MgCl2, 0.1 mM EGTA, 1 mM ATP, 10 mM MOPS pH 7.0 at 25°C. […] Absorbance was monitored at 340 nm.

bovine myosin 10 = biological target: T3, bovine myosin 10 (Bos taurus, UniProt P79114); assay: actin-activated ATPase assay (NADH-linked); type: biochemical; details: approximate
T3 construct: a forced dimeric HMM-like fragment of bovine myosin 10; dimerisation element (forced dimer); made in house; host or cells: Sf9 cells
T3 sequence (P79114 other isoform, or with tags, fused parts or gaps): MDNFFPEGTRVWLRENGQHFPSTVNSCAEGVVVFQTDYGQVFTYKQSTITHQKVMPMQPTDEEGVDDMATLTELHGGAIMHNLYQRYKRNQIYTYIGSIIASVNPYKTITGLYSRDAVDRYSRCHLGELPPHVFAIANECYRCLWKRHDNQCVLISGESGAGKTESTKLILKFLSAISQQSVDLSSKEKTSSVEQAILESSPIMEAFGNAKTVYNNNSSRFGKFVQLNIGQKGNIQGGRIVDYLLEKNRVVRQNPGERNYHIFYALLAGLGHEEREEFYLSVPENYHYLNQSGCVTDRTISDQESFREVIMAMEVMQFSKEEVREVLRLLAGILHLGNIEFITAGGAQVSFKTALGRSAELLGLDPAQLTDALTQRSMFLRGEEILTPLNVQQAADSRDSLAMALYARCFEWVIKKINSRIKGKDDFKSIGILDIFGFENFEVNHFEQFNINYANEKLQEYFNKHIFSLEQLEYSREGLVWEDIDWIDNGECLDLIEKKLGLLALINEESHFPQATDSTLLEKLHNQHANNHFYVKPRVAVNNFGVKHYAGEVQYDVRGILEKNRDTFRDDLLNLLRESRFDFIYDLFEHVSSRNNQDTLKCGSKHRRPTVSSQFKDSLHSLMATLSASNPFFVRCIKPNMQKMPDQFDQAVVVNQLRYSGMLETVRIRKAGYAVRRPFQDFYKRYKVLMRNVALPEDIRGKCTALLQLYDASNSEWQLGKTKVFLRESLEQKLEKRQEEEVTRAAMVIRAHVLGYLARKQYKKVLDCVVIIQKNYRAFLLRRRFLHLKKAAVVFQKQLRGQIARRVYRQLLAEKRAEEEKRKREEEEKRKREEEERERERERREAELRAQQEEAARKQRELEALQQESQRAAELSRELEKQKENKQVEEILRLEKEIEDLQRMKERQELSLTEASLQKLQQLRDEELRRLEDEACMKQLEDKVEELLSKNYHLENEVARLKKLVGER
From the text: as §6, §7, §8

Drosophila myosin 5 = Drosophila myosin 5 (Drosophila melanogaster, UniProt A1Z6Z9); assay: actin-activated ATPase assay (NADH-linked); type: biochemical; details: approximate
From the text: as §6, §7, §8

[5] = tested on: permeabilized REF52 cells; assay: ATP-dependent ventral stress fiber retraction in Triton X-100-permeabilized cells; type: cell-based, rat
From the text: Detergent treatment leads to depletion of all soluble factors from the cells and, in particular, of ATP. Supplementing the medium with ATP induces the myosin 2-dependent contraction of stress fibers. […] We locally photoconverted spots along the length of ventral stress fibers, and tracked both retraction of the unconverted stress fiber ends and longitudinal movements of the photoconverted actin spots after adding ATP into the solution (Fig. 1C, left panel).
For stress fiber imaging, REF52 cells were transfected with mEos3.2-Actin expression plasmid and seeded onto a 35 mm glass bottom dish (Iwaki, 3930-035) 24 h prior to the assay.
The protocol of the cell permeabilization and cytoskeleton contractility assay has been described previously ([Tee and Bershadsky, 2016]; [Tee et al., 2015]). […] All drug remained in the buffer during the entire period of observation.

REF52 fibroblast = assay: traction force microscopy in living cells; type: cell-based, rat; details: 30 μM, within 10 min
Method: Traction force microscopy with embedded beads was performed as described previously ([Rafiq et al., 2019]). Briefly, soft polydimethylsiloxanes CY 52-276A and CY 52-276B (Dow Corning, 0008602722) were mixed at the ratio 1:1 and Sylgard 184 crosslinker was used to tune the stiffness of the gel for proper force measurement of cells (∼95 kPa). The mixture was spin-coated onto a clean coverslip to achieve the thickness of ∼7 μm and cured for 1 h at 80°C. The surface of the gel was silanized with (3-aminopropyl)triethoxysilane for 2 h, followed by incubation of 0.04 μm FluoSpheres carboxylate-modified microspheres, dark red fluorescent (660/680) beads (Thermo Fisher Scientific, 1871942) at 1×10^6 beads/ml in a solution of 0.1 M NaHCO3 for 30 min. Before seeding the cells, the coverslips with beads were further incubated for 30 min with 10 μg/ml fibronectin, also dissolved in 0.1 M NaHCO3. Traction forces were calculated from bead displacement fields visualized by using live cell imaging as described by [Tseng et al. (2012)], and using the online ImageJ plugin (https://sites.google.com/site/qingzongtseng/tfm for plugin software details). The computation algorithm as published by [Sabass et al. (2008)] was used. The distribution of traction force magnitude was presented as a heat map (Fig. 1A), and mean magnitude values were calculated for each cell.

HFF cells = assay: centripetal movement of myosin 2 filaments at transverse arcs in living cells (PIV); type: cell-based, human; details: treated 45 min, 12.5, 25 or 50 μM
From the text: as §4, §5

mDia1 = tested on: mDia1; design: method as in Rizvi et al., 2009; details: actin assembly in the presence of profilin in vitro; ref Rizvi et al., 2009; read-out: Half-maximal inhibition of mDia1; cited from earlier work

SMILES | IC50 [1] | IC50 [2] [µM] | ATP-induced centripetal movement of myosin 2 filaments (permeabilized HFF cells) | IC50 [3] [µM] | inhibition of MLCK activity (MLCK) | Velocity of actin filaments ([4]; 50 μM SMIFH2) | Velocity of actin filaments ([4]; 100 μM SMIFH2) | Velocity of actin filaments ([4]; 150 μM SMIFH2) | Velocity of actin filaments ([4]; 150 μM SMIFH2 followed by washout) | Velocity of actin filaments ([4]; 200 μM SMIFH2) | effect on assembly of pure actin (pure actin) | IC50 (Drosophila myosin 7a) | IC50 (bovine myosin 10) | IC50 (Drosophila myosin 5) | inhibition of ATP-induced retraction of stress fiber ends (contractility) ([5]; >100 μM SMIFH2) | inhibition of ATP-induced retraction of stress fiber ends ([5]; ∼50μM SMIFH2) [%] | effect on traction forces exerted by cells (REF52 fibroblast) | velocity of centripetal movement of transverse arcs (myosin 2 filaments) (HFF cells) | IC50 (mDia1) [µM] | inhibition of ATP-induced retraction of stress fiber ends (contractility) ([5]; 100 μM pAB)
O=C1NC(=S)N(c2cccc(Br)c2)C(=O)C1=Cc1ccco1 [SMIFH2] | 50 µM and ~50 µM | ~40 | blocked centripetal movement | 5 to 15 | no effect; also recorded: did not inhibit | 4.1* μm/s | 4.1* μm/s | completely abolished; also recorded: No movement | could not be reversed; also recorded: No movement | No movement | did not affect | 30 µM and ~30 µM | 15 µM and ~15 µM | 2 µM and ~2 µM | complete inhibition | ~50 | inhibition of traction forces | decreased in dose-dependent manner | ~15 | 
Cc1ccc2c(c1)C(=O)[C@]1(O)CCN(c3ccc(N)cc3)C1=N2 [pAB, para-aminoblebbistatin] |  |  |  |  |  |  |  |  |  |  |  |  |  |  |  |  |  |  |  | complete inhibition
